Assay results taken from the NIST ThermoML archive (doi:10.1016/j.jct.2015.04.027).
Numbers after ± are expanded uncertainties.

Test: xn = mol fraction of the nth substance listed
Conditions: 100 kPa, Liquid; for viscosity: Falling or rolling sphere viscometry; for mass density: Vibrating tube method

Q: With `CN(C)C(=[NH2+])N(C)C.c1c[n-]cn1` [1,1,3,3-tetramethylguanidinium imidazol-1-ide] + CO as the compound, how does the viscosity (293.15 K, x1 = 0.0501) read?
A: 0.905 ± 0.02 mPa·s

Q: What about the viscosity (293.15 K, x1 = 0.1005) of the same compound?
A: 1.272 ± 0.028 mPa·s

Q: What about the viscosity (293.15 K, x1 = 0.1957) of the same compound?
A: 1.979 ± 0.043 mPa·s

Q: What about the viscosity (293.15 K, x1 = 0.2953) of the same compound?
A: 2.761 ± 0.06 mPa·s

Q: And the viscosity (293.15 K, x1 = 0.393)?
A: 3.723 ± 0.081 mPa·s

Q: What about the viscosity (293.15 K, x1 = 0.5005) of the same compound?
A: 4.794 ± 0.1 mPa·s

Q: What about the viscosity (293.15 K, x1 = 0.6431) of the same compound?
A: 6.21 ± 0.14 mPa·s

Q: And the viscosity (293.15 K, x1 = 0.7815)?
A: 7.421 ± 0.16 mPa·s

Q: And the viscosity (293.15 K, x1 = 0.8994)?
A: 8.342 ± 0.18 mPa·s

Q: What about the viscosity (293.15 K, x1 = 1) of the same compound?
A: 8.952 ± 0.2 mPa·s

Q: And the mass density (293.15 K, x1 = 0.0501)?
A: 840.28 ± 0.82 kg/m3

Q: And the mass density (293.15 K, x1 = 0.1005)?
A: 872.86 ± 0.5 kg/m3

Q: And the mass density (293.15 K, x1 = 0.1957)?
A: 912.69 ± 0.36 kg/m3

Q: What about the mass density (293.15 K, x1 = 0.2953) of the same compound?
A: 938.06 ± 0.25 kg/m3

Q: What about the mass density (293.15 K, x1 = 0.393) of the same compound?
A: 954.84 ± 0.21 kg/m3

Q: And the mass density (293.15 K, x1 = 0.5005)?
A: 968.24 ± 0.18 kg/m3

Q: And the mass density (293.15 K, x1 = 0.6431)?
A: 980.21 ± 0.19 kg/m3

Q: And the mass density (293.15 K, x1 = 0.7815)?
A: 988.47 ± 0.2 kg/m3

Q: And the mass density (293.15 K, x1 = 0.8994)?
A: 993.77 ± 0.23 kg/m3

Q: And the mass density (293.15 K, x1 = 1)?
A: 997.25 ± 0.25 kg/m3

Q: And the viscosity (298.15 K, x1 = 0.0501)?
A: 0.829 ± 0.019 mPa·s

Q: What about the viscosity (298.15 K, x1 = 0.1005) of the same compound?
A: 1.108 ± 0.025 mPa·s

Q: What about the viscosity (298.15 K, x1 = 0.1957) of the same compound?
A: 1.768 ± 0.038 mPa·s

Q: And the viscosity (298.15 K, x1 = 0.2953)?
A: 2.423 ± 0.053 mPa·s

Q: What about the viscosity (298.15 K, x1 = 0.393) of the same compound?
A: 3.212 ± 0.07 mPa·s

Q: What about the viscosity (298.15 K, x1 = 0.5005) of the same compound?
A: 4.098 ± 0.089 mPa·s

Q: What about the viscosity (298.15 K, x1 = 0.6431) of the same compound?
A: 5.186 ± 0.11 mPa·s

Q: What about the viscosity (298.15 K, x1 = 0.7815) of the same compound?
A: 6.122 ± 0.13 mPa·s

Q: And the viscosity (298.15 K, x1 = 0.8994)?
A: 6.826 ± 0.15 mPa·s

Q: And the viscosity (298.15 K, x1 = 1)?
A: 7.287 ± 0.16 mPa·s

Q: What about the mass density (298.15 K, x1 = 0.0501) of the same compound?
A: 835.36 ± 0.83 kg/m3

Q: And the mass density (298.15 K, x1 = 0.1005)?
A: 868.04 ± 0.51 kg/m3

Q: What about the mass density (298.15 K, x1 = 0.1957) of the same compound?
A: 907.98 ± 0.37 kg/m3

Q: And the mass density (298.15 K, x1 = 0.2953)?
A: 933.41 ± 0.27 kg/m3

Q: What about the mass density (298.15 K, x1 = 0.393) of the same compound?
A: 950.24 ± 0.22 kg/m3

Q: What about the mass density (298.15 K, x1 = 0.5005) of the same compound?
A: 963.68 ± 0.2 kg/m3

Q: And the mass density (298.15 K, x1 = 0.6431)?
A: 975.69 ± 0.2 kg/m3

Q: And the mass density (298.15 K, x1 = 0.7815)?
A: 983.99 ± 0.21 kg/m3

Q: What about the mass density (298.15 K, x1 = 0.8994) of the same compound?
A: 989.31 ± 0.23 kg/m3

Q: And the mass density (298.15 K, x1 = 1)?
A: 992.8 ± 0.25 kg/m3

Q: And the viscosity (303.15 K, x1 = 0.0501)?
A: 0.765 ± 0.017 mPa·s

Q: What about the viscosity (303.15 K, x1 = 0.1005) of the same compound?
A: 1.014 ± 0.022 mPa·s

Q: What about the viscosity (303.15 K, x1 = 0.1957) of the same compound?
A: 1.592 ± 0.035 mPa·s

Q: What about the viscosity (303.15 K, x1 = 0.2953) of the same compound?
A: 2.148 ± 0.047 mPa·s

Q: And the viscosity (303.15 K, x1 = 0.393)?
A: 2.804 ± 0.061 mPa·s

Q: And the viscosity (303.15 K, x1 = 0.5005)?
A: 3.53 ± 0.08 mPa·s

Q: And the viscosity (303.15 K, x1 = 0.6431)?
A: 4.369 ± 0.095 mPa·s

Q: And the viscosity (303.15 K, x1 = 0.7815)?
A: 5.141 ± 0.11 mPa·s

Q: What about the viscosity (303.15 K, x1 = 0.8994) of the same compound?
A: 5.692 ± 0.12 mPa·s

Q: And the viscosity (303.15 K, x1 = 1)?
A: 6.044 ± 0.13 mPa·s

Q: And the mass density (303.15 K, x1 = 0.0501)?
A: 830.44 ± 0.83 kg/m3

Q: And the mass density (303.15 K, x1 = 0.1005)?
A: 863.19 ± 0.51 kg/m3

Q: And the mass density (303.15 K, x1 = 0.1957)?
A: 903.25 ± 0.37 kg/m3

Q: What about the mass density (303.15 K, x1 = 0.2953) of the same compound?
A: 928.74 ± 0.27 kg/m3

Q: What about the mass density (303.15 K, x1 = 0.393) of the same compound?
A: 945.62 ± 0.22 kg/m3

Q: And the mass density (303.15 K, x1 = 0.5005)?
A: 959.1 ± 0.2 kg/m3

Q: What about the mass density (303.15 K, x1 = 0.6431) of the same compound?
A: 971.16 ± 0.2 kg/m3

Q: And the mass density (303.15 K, x1 = 0.7815)?
A: 979.49 ± 0.21 kg/m3

Q: What about the mass density (303.15 K, x1 = 0.8994) of the same compound?
A: 984.84 ± 0.23 kg/m3

Q: And the mass density (303.15 K, x1 = 1)?
A: 988.35 ± 0.25 kg/m3

Q: And the viscosity (308.15 K, x1 = 0.0501)?
A: 0.709 ± 0.016 mPa·s

Q: What about the viscosity (308.15 K, x1 = 0.1005) of the same compound?
A: 0.931 ± 0.021 mPa·s

Q: And the viscosity (308.15 K, x1 = 0.1957)?
A: 1.442 ± 0.031 mPa·s

Q: And the viscosity (308.15 K, x1 = 0.2953)?
A: 1.918 ± 0.041 mPa·s

Q: And the viscosity (308.15 K, x1 = 0.393)?
A: 2.468 ± 0.053 mPa·s

Q: What about the viscosity (308.15 K, x1 = 0.5005) of the same compound?
A: 3.077 ± 0.067 mPa·s

Q: And the viscosity (308.15 K, x1 = 0.6431)?
A: 3.783 ± 0.082 mPa·s

Q: What about the viscosity (308.15 K, x1 = 0.7815) of the same compound?
A: 4.38 ± 0.096 mPa·s

Q: And the viscosity (308.15 K, x1 = 0.8994)?
A: 4.819 ± 0.11 mPa·s

Q: And the viscosity (308.15 K, x1 = 1)?
A: 5.097 ± 0.11 mPa·s

Q: What about the mass density (308.15 K, x1 = 0.0501) of the same compound?
A: 825.51 ± 0.83 kg/m3

Q: What about the mass density (308.15 K, x1 = 0.1005) of the same compound?
A: 858.35 ± 0.51 kg/m3

Q: And the mass density (308.15 K, x1 = 0.1957)?
A: 898.51 ± 0.37 kg/m3

Q: What about the mass density (308.15 K, x1 = 0.2953) of the same compound?
A: 924.08 ± 0.27 kg/m3

Q: What about the mass density (308.15 K, x1 = 0.393) of the same compound?
A: 941 ± 0.22 kg/m3

Q: And the mass density (308.15 K, x1 = 0.5005)?
A: 954.53 ± 0.2 kg/m3

Q: What about the mass density (308.15 K, x1 = 0.6431) of the same compound?
A: 966.63 ± 0.2 kg/m3

Q: And the mass density (308.15 K, x1 = 0.7815)?
A: 975 ± 0.21 kg/m3

Q: And the mass density (308.15 K, x1 = 0.8994)?
A: 980.37 ± 0.23 kg/m3

Q: And the mass density (308.15 K, x1 = 1)?
A: 983.9 ± 0.25 kg/m3

Q: What about the viscosity (313.15 K, x1 = 0.0501) of the same compound?
A: 0.659 ± 0.015 mPa·s

Q: What about the viscosity (313.15 K, x1 = 0.1005) of the same compound?
A: 0.859 ± 0.019 mPa·s

Q: And the viscosity (313.15 K, x1 = 0.1957)?
A: 1.314 ± 0.029 mPa·s

Q: And the viscosity (313.15 K, x1 = 0.2953)?
A: 1.724 ± 0.037 mPa·s

Q: And the viscosity (313.15 K, x1 = 0.393)?
A: 2.192 ± 0.047 mPa·s

Q: What about the viscosity (313.15 K, x1 = 0.5005) of the same compound?
A: 2.702 ± 0.059 mPa·s

Q: And the viscosity (313.15 K, x1 = 0.6431)?
A: 3.274 ± 0.071 mPa·s

Q: What about the viscosity (313.15 K, x1 = 0.7815) of the same compound?
A: 3.777 ± 0.083 mPa·s

Q: What about the viscosity (313.15 K, x1 = 0.8994) of the same compound?
A: 4.134 ± 0.091 mPa·s

Q: What about the viscosity (313.15 K, x1 = 1) of the same compound?
A: 4.358 ± 0.096 mPa·s

Q: What about the mass density (313.15 K, x1 = 0.0501) of the same compound?
A: 820.57 ± 0.84 kg/m3

Q: And the mass density (313.15 K, x1 = 0.1005)?
A: 853.49 ± 0.55 kg/m3

Q: What about the mass density (313.15 K, x1 = 0.1957) of the same compound?
A: 893.76 ± 0.41 kg/m3

Q: What about the mass density (313.15 K, x1 = 0.2953) of the same compound?
A: 919.38 ± 0.29 kg/m3

Q: What about the mass density (313.15 K, x1 = 0.393) of the same compound?
A: 936.36 ± 0.24 kg/m3

Q: And the mass density (313.15 K, x1 = 0.5005)?
A: 949.94 ± 0.22 kg/m3

Q: And the mass density (313.15 K, x1 = 0.6431)?
A: 962.09 ± 0.21 kg/m3

Q: What about the mass density (313.15 K, x1 = 0.7815) of the same compound?
A: 970.51 ± 0.22 kg/m3

Q: What about the mass density (313.15 K, x1 = 0.8994) of the same compound?
A: 975.91 ± 0.23 kg/m3

Q: What about the mass density (313.15 K, x1 = 1) of the same compound?
A: 979.46 ± 0.25 kg/m3
